# Results: PubChem BioAssay AID1259333 (Broad Institute, 2017)
# “And” between values parts separate entries of the source, which are not always exact repeats. Identical values can stand only once. The source made the active and inactive calls. How the calls were made is not given here; tested in parental BL2 cells. Numbered stars: 1 amine (or outer) side, 2 acyl side, 3 side chain; on linkers, the order of the positions; unused ones are H or OH. Bridge positions count the residues as written; N and C are the ends. Square brackets hold non-standard residues; d marks the D form. Peptide text beside a SMILES is read from it. I, II: the chains in the order shown. Actinocin(9to1) = Cc1c2oc3c(C)ccc(C(=O)[*:1])c3nc-2c(C(=O)[*:2])c(N)c1=O; NMeV = CN[CH](C(=O)O)C(C)C; Sar = CNCC(=O)O
# Tested on: cytotoxicity, CellTiter-Glo ATP luminescence
# Assay: cell cytotoxicity, dose response, cytotoxicity control, CellTiter-Glo (AID 1259333);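 on activity change, negative = cytotoxicity: 0% = vehicle neutral controls and -100% = reference inhibitor positive controls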
# Conditions: not given
row,SMILES,AC50
1,C[C@@H]1CN([C@H](C)CO)C(=O)c2cc(NC(=O)Nc3cccc4ccccc34)ccc2O[C@@H](C)CCCCO[C@H]1CN(C)Cc1ccc(C(F)(F)F)cc1,> 20 µM (inactive)
2,C[C@@H]1CN([C@H](C)CO)C(=O)c2c(c3ccccc3n2C)-c2ccccc2CO[C@@H]1CN(C)C(=O)c1cc(Cl)cc(Cl)c1,9.93 µM
3,O=C1NC2C(=CC(O)C(O)C2O)c2cc3c(c(O)c21)OCO3 (stereo not drawn),10 µM
4,COC(=O)C[C@](O)(CCCC(C)(C)O)C(=O)O[C@@H]1C(OC)=C[C@]23CCCN2CCc2cc4c(cc2[C@H]13)OCO4,> 20 µM (inactive)
5,Cc1c2oc3c(C)ccc(C(=O)OC(C)C4NC(=O)C(C(C)C)N(C)C(=O)CN(C)C(=O)C5CCCN5C(=O)C(C(C)C)NC4=O)c3nc-2c(C(=O)OC(C)C2NC(=O)C(C(C)C)N(C)C(=O)CN(C)C(=O)C3CCCN3C(=O)C(C(C)C)NC2=O)c(N)c1=O (stereo not drawn) (I: cyclo([Sar][NMeV]TVP) / II: cyclo([Sar][NMeV]TVP); linker I:3-II:3 via Actinocin(9to1); configuration not given here),> 20 µM (inactive)
6,CC1=CC2OC3CC4OC(=O)C=CC=CC(=O)OCCC(C)C(O)C(=O)OCC2(CC1O)C4(C)C31CO1 (stereo not drawn),7.23 µM
7,O=C(Cn1ncc(Cl)c(Cl)c1=O)NC1CCCCC1,9.64 µM
8,COc1ccc2c3c(n(C)c2c1)[C@H](CO)N(C(=O)Nc1ccc(F)cc1)CC31CCN(C(=O)c2ccc3c(c2)OCO3)CC1,> 20 µM (inactive)
9,C[C@H](CO)N1C[C@H](C)[C@@H](CN(C)Cc2ccc(Oc3ccccc3)cc2)OCc2ccccc2-c2ccccc2C1=O,> 20 µM (inactive)
10,Cc1noc(C)c1S(=O)(=O)Nc1ccc2c(c1)C(=O)N([C@@H](C)CO)C[C@H](C)[C@@H](CN(C)C(=O)Nc1cccc3ccccc13)OCCCC[C@H](C)O2,> 20 µM (inactive)
11,COc1ccc2c(c1)c1ncn(Cc3ccccn3)c(=O)c1n2C,> 20 µM (inactive)
12,COc1c(O)cc2oc3cc(O)c(CC=C(C)C)c(O)c3c(=O)c2c1CC=C(C)C,6.98 µM
13,Cc1ccc(-c2cc(C(=O)N3CC(C)OC(C)C3)c3ccccc3n2)o1 (stereo not drawn),> 20 µM (inactive)
14,Cc1noc(C)c1S(=O)(=O)Nc1ccc2c(c1)CC(=O)N([C@@H](C)CO)C[C@@H](C)[C@@H](CN(C)Cc1ccc(Oc3ccccc3)cc1)O2,> 20 µM (inactive)
15,O=C(Nc1ccccn1)c1ccc(-c2ccccc2)cc1,> 20 µM (inactive)
16,CN(C)C(=S)SSC(=S)N(C)C,1.36 µM
17,C[C@@H]1CN([C@@H](C)CO)C(=O)Cc2cc(NC(=O)Cc3cn(C)c4ccccc34)ccc2O[C@H]1CN(C)Cc1ccc(C(F)(F)F)cc1,> 20 µM (inactive)
18,C[C@H](CO)N1C[C@H](C)[C@@H](CN(C)Cc2ccc(Oc3ccccc3)cc2)Oc2c(NC(=O)CCC(F)(F)F)cccc2C1=O,6.84 µM
19,COc1cc(/C=N/n2cnnc2)ccc1OC(=O)c1ccncc1,8.07 µM
20,O=[N+]([O-])c1ccc(N2CCOCC2)c2c1no[n+]2[O-],2.85 µM

row,SMILES,AC50
1,CNC(=S)NN=C(C)CCCC(C)=NNC(=S)NC,10.3 µM
2,O=C(C1CC1)N1C[C@@H]2N[C@H](C1)[C@@H]2c1ccc(-c2ccncc2)cc1,> 20 µM (inactive)
3,O=C(Nc1cccc(N2C(=O)C=CC2=O)c1)c1cccs1,2.26 µM
4,C[C@@H]1CN([C@H](C)CO)C(=O)c2ccccc2-c2ccccc2CO[C@@H]1CN(C)C(=O)c1cc(Cl)cc(Cl)c1,8.71 µM
5,CC1OC(OC2C(O)CC(OC3C(O)CC(OC4CCC5(C)C(CCC6C5CCC5(C)C(C7=CC(=O)OC7)C(O)CC65O)C4)OC3C)OC2C)CC(O)C1O (stereo not drawn),0.625 µM
6,N#C[C@@H]1[C@H](c2ccc(C#CC3CCCC3)cc2)[C@@H](CO)N1C(=O)Nc1ccc(F)cc1,> 20 µM (inactive)
7,O=C(c1ccc(Nc2nccc(-c3cc4ccccc4s3)n2)cc1)N1CCC(N2CCCC2)CC1,3.83 µM and 1.17 µM
8,CC12CCC3C(CCC4(O)CC(O)CCC34C=NO)C1(O)CCC2C1=COC(=O)C1 (stereo not drawn),0.322 µM
9,O=C1NC2C(O)C(O)C(O)C(O)C2c2cc3c(c(O)c21)OCO3 (stereo not drawn),9.05 µM
10,COc1c(-c2coc3cc4c(cc3c2=O)CC(O)C(C)(C)O4)ccc2c1C=CC(C)(C)O2 (stereo not drawn),> 20 µM (inactive)
11,Clc1ccc(C(Cn2ccnc2)OCc2ccsc2Cl)c(Cl)c1 (stereo not drawn),> 20 µM (inactive)
12,CC(C)=CCc1c2c(c3occ(-c4ccc(O)c(O)c4)c(=O)c3c1O)C=CC(C)(C)O2,5.55 µM
13,c1ccc2sc(-c3ccc4c(c3)OCO4)nc2c1,5.19 µM
14,O=C(NCCC(c1ccccc1)c1ccco1)c1cccs1 (stereo not drawn),> 20 µM (inactive)
15,Cc1cc(C)cc(N2C(=O)CC(Sc3nnnn3-c3ccccc3)C2=O)c1 (stereo not drawn),4.02 µM
16,CCCNC(=O)N1[C@H](C#N)[C@H](c2ccc(C3=CCCCC3)cc2)[C@@H]1CO,> 20 µM (inactive)
17,OC(CCN1CCCCC1)c1ccc(-c2ccccc2)cc1 (stereo not drawn),> 20 µM (inactive)
18,C[n+]1c2n(c3ccccc31)N=C(c1ccc(-c3ccccc3)cc1)CS2,6.3 µM
19,COc1cccc2c1C(=O)c1c(O)c3c(c(O)c1C2=O)C[C@@](O)(C(C)=O)C[C@@H]3OC1CC(N)C(O)C(C)O1 (stereo partly drawn),2.72 µM
20,CC(C)C#Cc1ccc([C@H]2[C@@H](CO)N(C(=O)c3ccccn3)[C@H]2C#N)cc1,> 20 µM (inactive)

row,SMILES,AC50
1,CC(=O)NCCCC(=O)NC(CCC(=O)OCc1ccccc1)C(=O)OCc1ccccc1 (stereo not drawn),9.31 µM
2,[O-]C(=C(C(=S)Nc1cccc2ccccc12)[n+]1ccccc1)c1ccc2c(c1)OCCO2,> 7 µM (inactive)
3,Cc1ccc(S(=O)(=O)N2CCCC2CNC(=O)c2ccc3c(c2)OCO3)cc1 (stereo not drawn),4.95 µM
4,CC1OC(CC(=O)O)CC2=C1C(=O)c1c(O)cccc1C2=O (stereo not drawn),1.06 µM
5,CC(C)[C@H](N)C(=O)N[C@H]1CCC2C3CC=C4C[C@@H](O)CC[C@]4(C)C3CC[C@@]21C (stereo partly drawn),6.89 µM
6,C=CC[n+]1c(/C=C2\C=Cc3cc(C)ccc3N2CC)ccc2ccccc21,7.46 µM
7,COc1cccc(NC(=O)N2CC(=O)N3[C@H](CO)[C@@H](c4ccc(C#CCC5CCCC5)cc4)[C@H]3C2)c1,4.13 µM
8,C[C@@H]1CN([C@@H](C)CO)C(=O)c2ccccc2-c2ccccc2CO[C@@H]1CN(C)Cc1ccccc1C(F)(F)F,> 20 µM (inactive)
9,CCC(C)[C@H]1O[C@]2(CC[C@@H]1C)C[C@@H]1C[C@@H](C/C=C(\C)[C@@H](OC3C[C@H](OC)C(O[C@H]4C[C@H](OC)[C@@H](O)[C@H](C)O4)[C@H](C)O3)[C@@H](C)/C=C/C=C3\CO[C@@H]4[C@H](O)C(C)=C[C@@H](C(=O)O1)[C@]34O)O2 (stereo partly drawn),> 20 µM (inactive)
10,N#C[C@H]1[C@H](c2ccc(C#Cc3ccccc3F)cc2)[C@@H](CO)N1C(=O)C1CC1,> 20 µM (inactive)
11,CC1CC(C)(O)CC(C(O)CC2CC(=O)NC(=O)C2)C1=O (stereo not drawn),7.54 µM
12,C[C@@H]1CN([C@H](C)CO)C(=O)c2c(c3ccccc3n2C)-c2ccccc2CO[C@H]1CN(C)C(=O)Nc1cccc(Cl)c1Cl,10.1 µM
13,O=C(Nc1ccccc1)N1CC(=O)N2[C@H](CO)[C@@H](c3ccc(C#CC4CCCCC4)cc3)[C@H]2C1,> 20 µM (inactive)
14,CC1=CC(C)(C)N=C(Nc2nc(C)c3cc(C)cc(C)c3n2)N1,1.46 µM
15,Clc1ccc(CSC(Cn2ccnc2)c2ccc(Cl)cc2Cl)cc1 (stereo not drawn),> 20 µM (inactive)
16,COC(=O)C1=C(C(=O)OC)C2OC1c1cc3ccccc3cc12,2.65 µM
17,O=C(COC(=O)c1ccccc1C(=O)c1ccc(Cl)c([N+](=O)[O-])c1)NC1CC1,2.45 µM
18,CNc1c2cccc(C)c2nc2c(C(=O)NCCN(C)C)cccc12,5.98 µM
19,C[C@@H]1CN([C@@H](C)CO)C(=O)c2c(c3ccccc3n2C)-c2ccccc2CO[C@@H]1CN(C)Cc1cccc(C(F)(F)F)c1,> 20 µM (inactive)

# Tested on: not listed separately
# Assay: as above
# Conditions: cytotoxicity, CellTiter-Glo ATP luminescence; at 9 µM (top of the series)
row,SMILES,"activity change, negative = cytotoxicity"
1,C[C@@H]1CN([C@H](C)CO)C(=O)c2c(c3ccccc3n2C)-c2ccccc2CO[C@@H]1CN(C)S(=O)(=O)c1ccccc1C#N,42.3% (inactive)

# Same assay, conditions: cytotoxicity, CellTiter-Glo ATP luminescence; at 10 µM (top of the series)
row,SMILES,"activity change, negative = cytotoxicity"
1,O=C(c1ccc(F)cc1)N1C[C@@H]2N[C@H](C1)C2c1ccc(/C=C/c2ccccc2)cc1 (stereo partly drawn),12.7% (inactive) and 35.5% (inactive)
2,C[C@@H]1CN([C@@H](C)CO)C(=O)c2c(c3ccccc3n2C)-c2ccccc2CO[C@H]1CN(C)Cc1cccc(C(=O)Nc2ccccc2N)c1,26.3% (inactive)
3,N#C[C@H]1[C@H](c2ccc(C#Cc3ccc(F)cc3)cc2)[C@@H](CO)N1C(=O)C1CCC1,-4.11% (inactive)
4,C/C=C/c1ccc(C2[C@H]3CNC[C@@H]2N3Cc2cccc(OC)c2)cc1 (stereo partly drawn),18% (inactive)
5,COc1ccc(Cl)cc1NC(=O)Nc1cc(C)nc2ccccc12,60.2% (inactive)
6,N#C[C@@H]1[C@H](c2ccc(C#Cc3ccccc3F)cc2)[C@@H](CO)N1C(=O)C1CC1,38% (inactive)
7,COc1cccc(S(=O)(=O)N(C)C[C@H]2OCc3ccccc3-c3c(n(C)c4ccccc34)C(=O)N([C@H](C)CO)C[C@@H]2C)c1,20.3% (inactive)
8,CC1CC(C)(C)Nc2ccc(OC(=O)c3ccco3)cc21 (stereo not drawn),203% (inactive)
9,CC=Cc1cc2c(c(=O)o1)C(=O)C(O)C(C)O2 (stereo not drawn),37.6% (inactive)
10,Cc1ccc2nc(C(F)(F)F)c(C#N)c(N)c2c1,1.7% (inactive)
11,O=S(=O)(CCSc1ccccn1)c1nc2ccccc2s1,55.1% (inactive)
12,c1ccc(OCCSc2nnc3sc4ccccc4n23)cc1,-14.5% (inactive)
13,COc1ccc(S(=O)(=O)N(C)C[C@@H]2Oc3ccc(NC(=O)Nc4ccc(C(F)(F)F)cc4)cc3C(=O)N([C@@H](C)CO)C[C@@H]2C)cc1,84.5% (inactive)
14,CC1CNCCN1S(=O)(=O)c1cccc2cnccc12 (stereo not drawn),-37.9% (inactive)
15,c1ccc2c(c1)OCC(C1=NCCN1)O2 (stereo not drawn),56.8% (inactive)
16,Cc1csc(NC(=O)c2ccc(N3CCCC3=O)cc2)n1,23.5% (inactive)
17,C[C@@H]1CN([C@@H](C)CO)C(=O)c2cc(C#CCc3ccccc3)cnc2O[C@@H]1CN(C)C(=O)C1CCOCC1,5.87% (inactive)
18,c1ccc(CCSc2nccn2-c2ccccc2)cc1,33.3% (inactive)
